# Values joined by “and” are separate entries in the source; they are usually repeats but may differ in a detail not shown here. Equal values may be shown once. Read-outs that look alike come from different tables or passages of the source.
# Assays:
# [1] = tested on: HBMEC (immortalized human bone marrow endothelial cell lines); test: in vitro cytotoxicity test (neutral red, 96-well microplate); type: cell-based; settings: 96 h, incubation 4 days
# Protocol: (§1) The cytotoxic effects of the different alkaloid extracts of P. harmala were studied on several cell lines: • human leukemia cell lines: K562 and Jurkat (leukemia), U937 (myeloma), • human solid tumor cell lines: KB (epithelioma of the nasopharynx) and HT29 (colon), • immortalized human bone marrow endothelial cell lines: HBMEC.
# (§2) The cells are cultured in an oven under a 5% CO2 atmosphere and at 37° C., in RPMI 1640 medium for K562, Jurkat, U937 and HT29 and DMEM for KB, supplemented with 10% foetal calf serum, 0.01% penicillin-streptomycin and L-glutamine 2 mM and in EGM2 medium for the HBMEC cells.
# (§3) The cytotoxicity test is carried out in a 96-well microplate in the presence of the extract to be tested at varying concentrations of 40, 20, 10, 5, 1, 0.5 μg/ml and in the absence of product, after incubation for 4 days at 37° C. On the 3rd day, a solution of neutral red is added which is absorbed by living cells. The optical density (OD) of dye released by lyzed cells is measured at 540 nm by an Elisa plate reader. The toxicity (% inhibition of growth) is inversely proportional to the optical density.
# (§4) The percentage of inhibition is defined as being the difference between the OD without product and the OD in the presence of product compared to the OD without product.
# (§5) The concentration inhibiting 50% of cell growth is obtained from the curve representing the percentage of inhibition as a function of the logarithm of the concentration.
# [2] = tested on: HT29 (colon); test: as above; type: cell-based; settings: Homo sapiens, HT-29, 96 h, incubation 4 days
# Protocol: as §1, §2, §3, §4, §5
# [3] = tested on: Jurkat (leukemia); test: as above; type: cell-based; settings: Homo sapiens, 96 h, incubation 4 days
# Protocol: as §1, §2, §3, §4, §5
# [4] = tested on: K562 (leukemia); test: as above; type: cell-based; settings: Homo sapiens, 96 h, incubation 4 days
# Protocol: as §1, §2, §3, §4, §5
# [5] = tested on: KB (epithelioma of the nasopharynx); test: as above; type: cell-based; settings: Homo sapiens, 96 h, incubation 4 days
# Protocol: as §1, §2, §3, §4, §5
# [6] = tested on: U937 (myeloma); test: as above; type: cell-based; settings: Homo sapiens, U-937, 96 h, incubation 4 days
# Protocol: as §1, §2, §3, §4, §5
# [7] = tested on: HT29 human colon tumor cells; test: in vivo antineoplastic activity, NOD-SCID mice xenografted with HT29 human tumour cells
# Protocol: (§6) The animal model chosen is that of severe combined immunodeficient (NOD-SCID) mice having received a xenograft of human tumor cells.
# (§7) Male and female NOD-SCID mice, more than 3 months old, were raised in an environment of strict sterility, in an insulator ventilated with filtered air and sterilized, at 22° C. and 40% humidity, with a day-12 h/night-12 h cycle. The cages, feeding bottles and the water were sterilized in an autoclave at 120° C. for 30 minutes and the food as well as the bedding were treated with γ-irradiation. All handling took place in aseptic conditions under a laminar flow hood.
# The mice were subjected to general anaesthesia by i.p. injection of 0.3 to 0.4 ml of hypnomidate at 2 mg/ml. 1×10^7 HT29 human colon tumor cells in suspension in 200 μl of PBS were then injected sub-cutaneously, into the backs of the mice. […]
# 50 mg of 5-fluorouracil (Sigma) were dissolved in 8 ml of water and the solution obtained was sterilized by filtration on a membrane with 0.22 μm porosity. […]
# [8] = Protocol: as §6, §7
# 150 mg of cyclophosphamide (Sigma) were dissolved in 8 ml of water and the solution obtained was sterilized by filtration on a membrane with 0.22 μm porosity.
# 50 mg of 5-fluorouracil (Sigma) were dissolved in 8 ml of water and the solution obtained was sterilized by filtration on a membrane with 0.22 μm porosity.
# 100 mg of dihydrated harmalacidine hydrochloride were dissolved in 8 ml of water and the solution obtained was sterilized by filtration on a membrane with 0.22 μm porosity. The mice received either 25, 50, or 100 mg/kg/day of harmalacidine alone, or a mixture of 25 or 50 mg/kg/day of harmalacidine+50 mg/kg/day of cyclophosphamide.
# [9] = tested on: malignant and endothelial cells tested; test: summary of in vitro cytotoxicity over all lines tested; type: cell-based, human; settings: Homo sapiens, Endothelial cell, range over the cell lines; read-out: IC50 vis-à-vis malignant and endothelial cells tested
# Protocol: as §1, §2, §3, §4, §5
# To summarize, the IC50 vis-à-vis malignant and endothelial cells tested is the following: […]
# [10] = tested on: HT29 human colon tumor cells; test: in vivo antineoplastic activity, NOD-SCID mice xenografted with HT29 human tumour cells; remark: listed apart in the source
# [11] = tested on: murine tumorous cells; settings: cited from earlier work
molecule,measurement,setting,value
"COc1ccc2c3c([nH]c2c1)C(=O)NCC3 [Harmalacidine (C), harmalacidine]",IC50,[1],28 µg/mL and 130 µM
same,IC50,[2],10.5 µg/mL and 34.4 µM
same,IC50,[3],15.5 µg/mL and 71.7 µM
same,IC50,[4],12.5 µg/mL and 57.8 µM
same,IC50,[5],12 µg/mL and 55.5 µM
same,IC50,[6],29 µg/mL and 134 µM
same,Average volume of the tumours of the treated mice compared to the average volume of the tumours of the non-treated mice (T/C) (%),"[7]; harmalacidine 25 mg/kg/day alone per os, Day 15",81%
same,Average volume of the tumours of the treated mice compared to the average volume of the tumours of the non-treated mice (T/C) (%),"[7]; harmalacidine 25 mg/kg/day alone per os, Day 30",72%
same,Average volume of the tumours of the treated mice compared to the average volume of the tumours of the non-treated mice (T/C) (%),"[7]; harmalacidine 25 mg/kg/day alone per os, Day 40",70%
same,Average volume of the tumours of the treated mice compared to the average volume of the tumours of the non-treated mice (T/C) (%),"[7]; harmalacidine 25 mg/kg/day alone per os, Day 50",65%
same,Average volume of the tumours of the treated mice compared to the average volume of the tumours of the non-treated mice (T/C) (%),"[7]; harmalacidine 25 mg/kg/day alone per os, Day 60",77%
same,Average volume of the tumours of the treated mice compared to the average volume of the tumours of the non-treated mice (T/C) (%),"[7]; harmalacidine 50 mg/kg/day alone per os, Day 15",42%
same,Average volume of the tumours of the treated mice compared to the average volume of the tumours of the non-treated mice (T/C) (%),"[7]; harmalacidine 50 mg/kg/day alone per os, Day 30",56%
same,Average volume of the tumours of the treated mice compared to the average volume of the tumours of the non-treated mice (T/C) (%),"[7]; harmalacidine 50 mg/kg/day alone per os, Day 40",48%
same,Average volume of the tumours of the treated mice compared to the average volume of the tumours of the non-treated mice (T/C) (%),"[7]; harmalacidine 50 mg/kg/day alone per os, Day 50",45%
same,Average volume of the tumours of the treated mice compared to the average volume of the tumours of the non-treated mice (T/C) (%),"[7]; harmalacidine 50 mg/kg/day alone per os, Day 60",57%
same,state of the mice (printed in the T/C column),"[8]; harmalacidine 100 mg/kg/day alone, Day 15",dead
same,tolerance of the dose,"[8]; harmalacidine 100 mg/kg/day, for more than 10 days",not tolerated
"COc1ccc2c(c1)[nH]c1c(C)nccc12 [Harmine (A), harmine]",IC50,[1],3.5 µg/mL and 16.5 µM
same,IC50,[2],2.9 µg/mL and 13.7 µM
same,IC50,[3],3.2 µg/mL and 15.1 µM
same,IC50,[5],4.6 µg/mL and 21.7 µM
same,IC50,[6],16.5 µM
same,IC50,[9],2.9 µg/mL to 4.6 µg/mL and 14 µM to 22 µM
same,inhibitory action on the growth of the tumors,[7]; harmine 100 mg/kg/day per os,very weak effect
same,Average volume of the tumours of the treated mice compared to the average volume of the tumours of the non-treated mice (T/C) (%),"[7]; harmine 100 mg/kg/day per os, Day 30",74%
same,Average volume of the tumours of the treated mice compared to the average volume of the tumours of the non-treated mice (T/C) (%),"[7]; harmine 100 mg/kg/day per os, Day 50",84%
same,Average volume of the tumours of the treated mice compared to the average volume of the tumours of the non-treated mice (T/C) (%),"[7]; harmine 100 mg/kg/day per os, Day 60",105%
same,Average volume of the tumours of the treated mice compared to the average volume of the tumours of the non-treated mice (T/C) (%),"[7]; harmine 125 mg/kg/day per os, Day 40",58%
same,Average volume of the tumours of the treated mice compared to the average volume of the tumours of the non-treated mice (T/C) (%),"[7]; harmine 125 mg/kg/day per os, Day 50",54%
same,Average volume of the tumours of the treated mice compared to the average volume of the tumours of the non-treated mice (T/C) (%),"[7]; harmine 125 mg/kg/day per os, Day 60",67%
same,Average volume of the tumours of the treated mice compared to the average volume of the tumours of the non-treated mice (T/C) (%),"[7]; harmine 150 mg/kg/day per os, Day 30",41%
same,Average volume of the tumours of the treated mice compared to the average volume of the tumours of the non-treated mice (T/C) (%),"[7]; harmine 150 mg/kg/day per os, Day 40",46%
same,Average volume of the tumours of the treated mice compared to the average volume of the tumours of the non-treated mice (T/C) (%),"[7]; harmine 150 mg/kg/day per os, Day 50",42%
same,Average volume of the tumours of the treated mice compared to the average volume of the tumours of the non-treated mice (T/C) (%),"[7]; harmine 150 mg/kg/day per os, Day 60",51%
same,Average volume of the tumours of the treated mice compared to the average volume of the tumours of the non-treated mice (T/C) (%),"[7]; harmine 175 mg/kg/day per os, Day 30",40%
same,Average volume of the tumours of the treated mice compared to the average volume of the tumours of the non-treated mice (T/C) (%),"[7]; harmine 175 mg/kg/day per os, Day 60",40%
same,T/C,"[7]; harmine 175 mg/kg/day per os, for the entire duration of treatment",40%
same,tolerance of the dose,"[8]; harmine 200 mg/kg/day per os, the mice died after a few days of treatment",not tolerated
same,Average volume of the tumours of the treated mice compared to the average volume of the tumours of the non-treated mice (T/C) (%),"[10]; harmine 100 mg/kg/day per os, Day 40",77%
same,Average volume of the tumours of the treated mice compared to the average volume of the tumours of the non-treated mice (T/C) (%),"[10]; harmine 125 mg/kg/day per os, Day 30",55%
same,Average volume of the tumours of the treated mice compared to the average volume of the tumours of the non-treated mice (T/C) (%),"[10]; harmine 175 mg/kg/day per os, Day 40",10%
same,Average volume of the tumours of the treated mice compared to the average volume of the tumours of the non-treated mice (T/C) (%),"[10]; harmine 175 mg/kg/day per os, Day 50",30%
Peganine [Peganine (B)],concentration inhibiting 50% of cell growth (IC50),[11],inactive

# Source: patent US20080069899A1, “Pharmaceutical Compositions Comprising Beta-Carboline Derivatives and Use Thereof for the Treatment of Cancer” (priority 2004, published 2008)
